Read-outs that look alike come from different tables or passages of the source.
[1] = heating temp. 40 °C, obs. temp. 40 °C
[2] = heating temp. 60 °C, obs. temp. 25 °C
[3] = heating temp. 60 °C, obs. temp. 40 °C
[4] = section 'Solubility by volumetric flask method', heating temp. 40 °C, obs. temp. 40 °C

| SMILES | Approximate Solubility (mg/mL) in Excipient: Cottonseed oil [2] | Approximate Solubility (mg/mL) in Excipient: Sesame oil [2] [mg/mL] | Equilibrium solubility (mg/mL) Water [1] [mg/mL] | further results |
| --- | --- | --- | --- | --- |
| C=C1CC[C@@]2(O)C3Cc4ccc(OC(=O)CCCCCCC/C=C\C/C=C\C/C=C\CC)c5c4[C@@]2(CCN3CC2CC2)[C@H]1O5 [Compound 20, (4aS,7aS,12bS)-3-(cyclopropylmethyl)-4a-hydroxy-7-methylene-2,3,4,4a,5,6,7,7a-octahydro-1H-4,12-methanobenzofuro[3,2-e]isoquinolin-9-yl (9Z,12Z,15Z)-octadeca-9,12,15-trienoate] | 68 to 82 mg/mL | 80 to 100 | <0.0002 | Approximate Solubility (mg/mL) in Excipient: Cottonseed oil [1]: >414 mg/mL; Approximate Solubility (mg/mL) in Excipient: Ethanol [1]: 157 to 197 mg/mL; Approximate Solubility (mg/mL) in Excipient: Sesame oil [1]: >406 mg/mL |
| C=C1CC[C@@]2(O)C3Cc4ccc(OC(=O)CCCCCCCCCCCCCCCCC)c5c4[C@@]2(CCN3CC2CC2)[C@H]1O5 [Compound 12, (4aS,7aS,12bS)-3-(cyclopropylmethyl)-4a-hydroxy-7-methylene-2,3,4,4a,5,6,7,7a-octahydro-1H-4,12-methanobenzofuro[3,2-e]isoquinolin-9-yl stearate] | <51 mg/mL | <50 | – | Approximate Solubility (mg/mL) in Excipient: Cottonseed oil [1]: 100 to 120 mg/mL; Approximate Solubility (mg/mL) in Excipient: Cottonseed oil [3]: >398.5 mg/mL; Approximate Solubility (mg/mL) in Excipient: Ethanol [1]: 65 to 75 mg/mL; Approximate Solubility (mg/mL) in Excipient: Sesame oil [1]: 70 to 95 mg/mL; Approximate Solubility (mg/mL) in Excipient: Sesame oil [3]: >411.1 mg/mL |
| C=C1CC[C@@]2(O)C3Cc4ccc(OCOC(=O)OCCCCCCCCCCC)c5c4[C@@]2(CCN3CC2CC2)[C@H]1O5 [Compound 5, (((4aS,7aS,12bS)-3-(cyclopropylmethyl)-4a-hydroxy-7-methylene-2,3,4,4a,5,6,7,7a-octahydro-1H-4,12-methanobenzofuro[3,2-e]isoquinolin-9-yl)oxy)methyl undecyl carbonate] | – | – | – | Solubility by volumetric flask method: Cottonseed oil [2]: >401.8 mg/mL; Solubility by volumetric flask method: Sesame oil [2]: >400.6 mg/mL; Equilibrium solubility (mg/mL) Water [4]: <0.001 mg/mL |
| CCCCCCCC/C=C\CCCCCCCCCCCC(=O)Oc1ccc2c3c1O[C@H]1C(=O)CC[C@@]4(O)C(C2)N(CC2CC2)CC[C@]314 [Compound 22, (4aS,7aR,12bS)-3-(cyclopropylmethyl)-4a-hydroxy-7-oxo-2,3,4,4a,5,6,7,7a-octahydro-1H-4,12-methanobenzofuro[3,2-e]isoquinolin-9-yl (Z)-docos-13-enoate] | 67 to 80 mg/mL | 67 to 80 | – | Approximate Solubility (mg/mL) in Excipient: Cottonseed oil [3]: >405.9 mg/mL; Approximate Solubility (mg/mL) in Excipient: Ethanol [3]: >397.7 mg/mL; Approximate Solubility (mg/mL) in Excipient: Sesame oil [3]: >401.9 mg/mL |
| CCCCCCCCCCCC(=O)OCOc1ccc2c3c1O[C@H]1C(=O)CC[C@@]4(O)C(C2)N(CC2CC2)CC[C@]314 [Compound 48, (((4aS,7aR,12bS)-3-(cyclopropylmethyl)-4a-hydroxy-7-oxo-2,3,4,4a,5,6,7,7a-octahydro-1H-4,12-methanobenzofuro[3,2-e]isoquinolin-9-yl)oxy)methyl dodecanoate] | >410.5 mg/mL | – | – | – |
| CCCCCCCCCCCOC(=O)OCOc1ccc2c3c1O[C@H]1C(=O)CC[C@@]4(O)C(C2)N(CC2CC2)CC[C@]314 [Compound 4, (((4aS,7aR,12bS)-3-(cyclopropylmethyl)-4a-hydroxy-7-oxo-2,3,4,4a,5,6,7,7a-octahydro-1H-4,12-methanobenzofuro[3,2-e]isoquinolin-9-yl)oxy)methyl undecyl carbonate] | – | – | – | Solubility by volumetric flask method: Cottonseed oil [2]: >395.3 mg/mL; Solubility by volumetric flask method: Sesame oil [2]: >400.4 mg/mL; Equilibrium solubility (mg/mL) Water [4]: <0.001 mg/mL |
| CCCCCCCCCCCCCCCCOC(=O)OCOc1ccc2c3c1O[C@H]1C(=O)CC[C@@]4(O)C(C2)N(CC2CC2)CC[C@]314 [Compound 47, (((4aS,7aR,12bS)-3-(cyclopropylmethyl)-4a-hydroxy-7-oxo-2,3,4,4a,5,6,7,7a-octahydro-1H-4,12-methanobenzofuro[3,2-e]isoquinolin-9-yl)oxy)methyl hexadecyl carbonate] | >405.5 mg/mL | – | <0.001 | – |
| CCCCCCCC/C=C/CCCCCCCC(=O)Oc1ccc2c3c1O[C@H]1C(=O)CC[C@@]4(O)C(C2)N(CC2CC2)CC[C@]314 [Compound 8, (4aS,7aR,12bS)-3-(cyclopropylmethyl)-4a-hydroxy-7-oxo-2,3,4,4a,5,6,7,7a-octahydro-1H-4,12-methanobenzofuro[3,2-e]isoquinolin-9-yl (E)-octadec-9-enoate] | – | – | – | Approximate Solubility (mg/mL) in Excipient: Cottonseed oil (heating 60 °C, obs. 25 °C, initial failed batch due to non-optimized synthesis): <50 mg/mL; Solubility by volumetric flask method: Sesame oil [2]: >399.8 mg/mL; Equilibrium solubility (mg/mL) Water [4]: <0.001 mg/mL |
| CCCCCCCC/C=C/CCCCCCCC(=O)OCOc1ccc2c3c1O[C@H]1C(=O)CC[C@@]4(O)C(C2)N(CC2CC2)CC[C@]314 [Compound 26, (((4aS,7aR,12bS)-3-(cyclopropylmethyl)-4a-hydroxy-7-oxo-2,3,4,4a,5,6,7,7a-octahydro-1H-4,12-methanobenzofuro[3,2-e]isoquinolin-9-yl)oxy)methyl (E)-octadec-9-enoate] | 204.3-239^ mg/mL | <354 | <0.001 | – |
| C=C1CC[C@@]2(O)C3Cc4ccc(OCOC(=O)CCCCCCCCCCC)c5c4[C@@]2(CCN3CC2CC2)[C@H]1O5 [Compound 44, (((4aS,7aS,12bS)-3-(cyclopropylmethyl)-4a-hydroxy-7-methylene-2,3,4,4a,5,6,7,7a-octahydro-1H-4,12-methanobenzofuro[3,2-e]isoquinolin-9-yl)oxy)methyl dodecanoate] | >407 mg/mL | 208 to 231 | <0.001 | – |
| C=C1CC[C@@]2(O)C3Cc4ccc(OC(=O)CCCCCCCCCCC/C=C\CCCCCCCC)c5c4[C@@]2(CCN3CC2CC2)[C@H]1O5 [Compound 13, (4aS,7aS,12bS)-3-(cyclopropylmethyl)-4a-hydroxy-7-methylene-2,3,4,4a,5,6,7,7a-octahydro-1H-4,12-methanobenzofuro[3,2-e]isoquinolin-9-yl (Z)-docos-13-enoate] | <50 mg/mL | 91 to 121 | – | Approximate Solubility (mg/mL) in Excipient: Cottonseed oil [1]: >381 mg/mL; Approximate Solubility (mg/mL) in Excipient: Ethanol [1]: >214 mg/mL; Approximate Solubility (mg/mL) in Excipient: Sesame oil [1]: >406 mg/mL |
| CCCCCCCCCCCCCCCC(=O)OCOc1ccc2c3c1O[C@H]1C(=O)CC[C@@]4(O)C(C2)N(CC2CC2)CC[C@]314 [Compound 49, (((4aS,7aR,12bS)-3-(cyclopropylmethyl)-4a-hydroxy-7-oxo-2,3,4,4a,5,6,7,7a-octahydro-1H-4,12-methanobenzofuro[3,2-e]isoquinolin-9-yl)oxy)methyl hexadecanoate] | <50 mg/mL | <51 | – | – |
| CCCCCCCC/C=C\CCCCCCCC(=O)Oc1ccc2c3c1O[C@H]1C(=O)CC[C@@]4(O)C(C2)N(CC2CC2)CC[C@]314 [Compound 41, (4aS,7aR,12bS)-3-(cyclopropylmethyl)-4a-hydroxy-7-oxo-2,3,4,4a,5,6,7,7a-octahydro-1H-4,12-methanobenzofuro[3,2-e]isoquinolin-9-yl oleate] | <50 mg/mL | <50 | – | Approximate Solubility (mg/mL) in Excipient: Cottonseed oil [1]: >407 mg/mL; Approximate Solubility (mg/mL) in Excipient: Ethanol [1]: >201 mg/mL |
| C=C1CC[C@@]2(O)C3Cc4ccc(OC(=O)OCCCCCCCCCCCCCCCCCCCC)c5c4[C@@]2(CCN3CC2CC2)[C@H]1O5 [Compound 28, (4aS,7aS,12bS)-3-(cyclopropylmethyl)-4a-hydroxy-7-methylene-2,3,4,4a,5,6,7,7a-octahydro-1H-4,12-methanobenzofuro[3,2-e]isoquinolin-9-yl icosyl carbonate] | <50.2 mg/mL | <50.6 | <0.001 | – |
| C=C1CC[C@@]2(O)C3Cc4ccc(OCOC(=O)CCCCCCCCCCCCCCC)c5c4[C@@]2(CCN3CC2CC2)[C@H]1O5 [Compound 46, (((4aS,7aS,12bS)-3-(cyclopropylmethyl)-4a-hydroxy-7-methylene-2,3,4,4a,5,6,7,7a-octahydro-1H-4,12-methanobenzofuro[3,2-e]isoquinolin-9-yl)oxy)methyl hexadecanoate] | >395.5 mg/mL | 202 to 269 | <0.001 | – |
| C=C1CC[C@@]2(O)C3Cc4ccc(OC(=O)OCCCCCCCCCCCCCCCCCC)c5c4[C@@]2(CCN3CC2CC2)[C@H]1O5 [Compound 33, (4aS,7aS,12bS)-3-(cyclopropylmethyl)-4a-hydroxy-7-methylene-2,3,4,4a,5,6,7,7a-octahydro-1H-4,12-methanobenzofuro[3,2-e]isoquinolin-9-yl octadecyl carbonate] | <50 mg/mL | <51 | <0.001 | – |

Reference: patent publication US10533015B1, “Opioid receptor antagonist prodrugs” (Nirsum Laboratories, Inc., priority 2019, dated 2020)
